logP and logD data for 129 compounds are collected here from the SangsterLogP compilation.

Residues, ends and D or L forms follow the SMILES beside them. *: point of attachment. Cbz = O=C(OCc1ccccc1)*

The first data set in a line: method code SF, from Hansch, C. & Leo, A. (1987). Log P database [Dataset]. Pomona College Medicinal Chemistry Project.
Conditions: not given
In turn, `CN(C)c1ccc([N+]([O-])=NC#N)cc1` had a logP of 2.3.
Same read-out and setting: the result for `N#Cc1cccc(N)c1` reads 1.07; that for `Cc1nnc2n1-c1sc(Br)cc1C(c1ccccc1Cl)=NC2`, 2.79.
The compound `CC(=O)Nc1ccccc1C#N` gave a logP of 0.57.
Consider `CC(=O)N(C)/N=N/c1ccc(F)cc1`, for which the logP was 2.77.
As for `CCOP(=O)(OCC)SCS(=O)CC` (centres undefined), the logP was found to be 1.69.
`N#CCC(N)=C(C#N)C#N` showed a logP of -0.13.
Turning to `CC(C)(C)c1cc(O)ccc1[N+](=O)[O-]`, the logP came to 3.65.
Consider `O=C(O)c1ccc(C(F)(F)F)cc1`, for which the logP came out at 3.1.
Consider `CCc1cccs1`, for which the logP was 2.87.
As for `O=C1CN=C(c2ccc[nH]2)c2cc(Cl)ccc2N1`, the logP was determined as 2.59.
`OCC(F)(F)C(F)(F)C(F)(F)F`: the logP came to 1.81.
Same read-out and setting: the result for `COc1cccc(OC)n1` reads 2.3; that for `Cn1ncc2cc([N+](=O)[O-])cc([N+](=O)[O-])c21`, 1.63.
On to `NC(=O)C(F)(F)F`, for which the logP worked out at 0.12.
The same measure, in the same setting: the result for `CNC(=O)C=C(C)OP(=O)(OC)OC` reads -0.2.
Compound `NC(=O)NN=CCCc1ccccc1` displayed a logP of 2.32.
On the same count and under the same terms, the result for `CCOC(=O)c1ccccn1` reads 0.88; that for `CCCCC1OC(=O)c2cc(N)ccc21` (centres undefined), 2.86; that for `NC(=O)C(Cl)(Cl)Cl`, 1.04.
In turn, `CC(=O)Oc1ccccc1[N+](=O)[O-]` showed a logP of 1.55.
Turning to `O=C(O)COc1ccccc1-c1ccccc1`, the logP was determined as 2.83.
Still for that read-out and setting: the result for `CC(C)C(NC(=O)OCc1ccccc1)C(=O)NC(Cc1ccc(O)cc1)C(=O)O` (stereo not drawn) (Cbz-Val-Tyr-OH; configuration not given here) reads 2.43; that for `O=C(CO)NCc1ccccc1`, 0.55.
As for `CC(=O)C(C)=O`, the logP is -1.34.
On the same count and under the same terms, next, `CCOP(=S)(Oc1ccc(C#N)cc1)c1ccccc1` (centres undefined): 4.29; `O=[N+]([O-])c1ccc(C=Cc2ncccn2)o1`: 1.34.
`CCSCC1=Nc2cc(Cl)ccc2S(=O)(=O)N1` had a logP of 2.26.
Take `O=C(NCC(O)c1ccc([N+](=O)[O-])cc1)C(F)(F)F` (centres undefined): the logP stood at 1.46.
As for `CCOC(=O)Cn1ccnc1C=Cc1ccc([N+](=O)[O-])o1`, the logP turned out to be 1.27.
In the case of `CN(C)c1ccc2c(c1)C(=O)OC2(C)C`, the logP was 2.42.
Regarding `CC(=O)c1cccc(OC(=O)N(C)C)c1`, the logP came out at 1.18.
As to `COc1ccc2c(c1)N=C(C)NS2(=O)=O`, the lipophilicity (logP) was 0.56.
`c1ccc2c(c1)CCc1ccccc1NC2`: the logP was 2.82.
`CC1(C)Cc2cccc(O)c2O1`: the logP came to 2.08.
In the case of `CCCCCCCCOC(=O)c1ccccc1C(=O)OCCCCCCCC`, the logP came out at 5.22.
`CCC(C)NC(=O)/C=C/c1ccccc1` (centres undefined) had a logP of 2.85.
Turning to `COc1ccc2ncccc2c1`, the logP is 2.2.
Consider `CCC1(C(C)CC(C)O)C(=O)NC(=O)NC1=O` (centres undefined), for which the logP was 0.35.
With `CN(C)c1cccc2ccccc12`, the logP turned out to be 3.46.
Compound `OC[C@@H]1C[C@H]1c1ccccc1` registered a logP of 1.95.
The compound `CCOC(=O)C(=Cc1cccc(OC)c1OC)C(C)=O` yielded a logP of 2.21.
Compound `NC(=O)c1ccc(I)cc1` returned a logP of 1.99.
`Nc1ccc2cc3ccccc3nc2c1` had a logP of 2.19.
Take `CC[C@H]1OC(=O)[C@H](C)[C@@H](O[C@H]2C[C@@](C)(OC)[C@@H](O)[C@H](C)O2)[C@H](C)[C@@H](O[C@@H]2O[C@H](C)C[C@H](NC)[C@H]2O)[C@](C)(O)C[C@@H](C)C(=O)[C@H](C)[C@@H](O)[C@]1(C)O`: the logP stood at 2.21.
In turn, `c1cscn1` showed a logP of 0.44.
On to `N#CN=[N+]([O-])c1cccc(C#N)c1`, for which the logP is 1.15.
With `COC(=O)c1ccccc1C`, the logP was found to be 2.75.
Regarding `Nc1cc(C(F)(F)F)cc(C(F)(F)F)c1`, the logP was 3.57.
The same measure, in the same setting: the result for `c1ccc(-c2ccc3ccccc3n2)cc1` reads 3.9; that for `Cc1cccc(C=C(C(N)=O)C(N)=O)c1`, 0.4; that for `O=[N+]([O-])C=Cc1ccoc1`, 1.41.
The same measure, in the same setting: next, `CNP(=O)(OC)Oc1ccccc1Cl` (centres undefined): 1.61; `CCCCC(=O)Nc1ccc(Cl)c(Cl)c1`: 4.17.
Compound `COc1ccc(OC(=O)N(C)C)cc1` showed a logP of 1.53.
Still for that read-out and setting: the result for `Cn1c(=O)ccc2ccccc21` reads 1.45.
`CCC(=O)Nc1ccccc1` gave a logP of 1.61.
As to `CC(=O)OCCC(=O)N(C)c1ccc(S(=O)(=O)N(C)C)cc1`, the logP turned out to be 0.26.
Regarding `c1ccn2nnnc2c1`, the logP was -0.09.
Same read-out and setting: next, `C#CCCC(C)=O`: 0.58; `CNc1ccccn1`: 1.07.
In turn, `ClC(Cl)=C(Cl)Cl` yielded a logP of 3.4.
Take `CCOC(=O)C(=Cc1ccccc1C)C(=O)OCC`: the logP worked out at 3.22.
`NC(=O)[C@H](Cc1ccccc1)NC(=O)[C@@H](N)Cc1ccccc1` (H-Phe-Phe-NH2) had a logP of 1.13.
`CC(C)c1ccccc1OCC(=O)O`: the logP was 2.84.
`COC(=O)C=Cc1ccccc1` gave a logP of 2.62.
On to `Clc1nnnn1-c1ccccc1`, for which the logP is 1.48.
With `c1nc[nH]n1`, the logP is -0.58.
`CCOC(=O)CON=Cc1ccc(OCC(=O)OCC)c(OC)c1` gave a logP of 1.87.
The same measure, in the same setting: the result for `NS(=O)(=O)Nc1ccccc1` reads 0.4; that for `CCOP(=S)(OCC)Oc1ccc(SC)cc1C`, 4.16.
Compound `CN(c1ccccc1)S(C)(=O)=O` showed a logP of 1.02.
Consider `C(#Cc1ccccc1)c1ccccc1`, for which the logP is 4.78.
`Nc1ccccc1S` displayed a logP of 1.43.
As to `CC(=O)c1ccccc1O`, the logP stood at 1.88.
On the same count and under the same terms, the result for `COc1cc(C=NOC(=O)COc2ccccc2)ccc1OCCO` reads 2.1; that for `CCNc1nc(NC(C)C)nc(SC)n1`, 2.98; that for `CC(=O)Nc1ccc(F)cc1`, 1.43.
In turn, `Cc1ccccc1C#N` came in with a logP of 2.21.
`CC(=O)Oc1ccc([N+](=O)[O-])cc1` registered a logP of 1.5.
As for `CCCCCCCOC(=O)c1ccc(O)cc1`, the logP came to 4.83.
Take `CC(=O)c1csc2ccccc12`: the logP amounted to 2.78.
With `CN(C)Cc1cccs1`, the logP worked out at 1.67.
In the case of `CC(=O)C(=Cc1ccccc1)C(C)=O`, the logP was 1.59.
Turning to `N=C(N)NS(=O)(=O)c1ccc(N)cc1`, the logP was -1.22.
`COc1cccc(OC(=O)N(C)C)c1` gave a logP of 1.6.
`COc1cc(OCCOC(=O)c2ccccc2)ccc1C=NO` had a logP of 2.94.
The compound `CCOP(=O)(OCC)SCn1nnc2ccccc2c1=O` came in with a logP of 1.63.
`CC(Cl)(Cl)Cl` showed a logP of 2.49.
As for `CC(O)CCC(=O)c1ccoc1` (centres undefined), the logP came to 0.84.
As for `O=C(O)c1cc(=O)c2cc3c(cc2o1)CCCC3`, the logP came to 3.4.
In the case of `c1ccc2c(c1)nnc1ccccc12`, the logP is 2.71.
The compound `CC(=O)C(F)(F)F` returned a logP of 0.2.
`NC(=O)c1ccccc1F`: the logP stood at 0.64.
The same measure, in the same setting: next, `NC(=O)C(=Cc1ccccc1)C(N)=O`: -0.13.
As for `CCC(C)C1=Nc2ccc(Cl)cc2S(=O)(=O)N1` (centres undefined), the logP worked out at 2.47.
Regarding `CC1=Nc2c(Cl)cccc2S(=O)(=O)N1`, the logP stood at 0.72.
The compound `CCC1OC(=O)C(C)C(OC2CC(C)(OC)C(O)C(C)O2)C(C)C(OC2OC(C)CC(N(C)C)C2O)C(C)(O)CC(C)C(=O)C(C)C(OC(C)=O)C1C` (centres undefined) came in with a logP of 3.32.
In turn, `O=[N+]([O-])c1ccc(N2CCCCC2)cc1` yielded a logP of 3.26.
`Nc1cccc(OC(=O)CNC(=O)c2ccccc2)c1` registered a logP of 1.3.
In the case of `CCN(CC)CCNc1ccc(C)c(Cl)c1`, the logP was found to be 4.14.
Consider `CNC(=S)NCc1ccccc1`, for which the logP was found to be 1.35.
The same measure, in the same setting: next, `CC(=O)NCCC(=O)N(C)c1ccc(S(=O)(=O)N(C)C)cc1`: -0.35; `CC1=Nc2c([N+](=O)[O-])cc(Cl)cc2S(=O)(=O)N1`: 0.85.
Same read-out and setting: next, `O=c1n[n+]([O-])ccn1Cc1ccccc1`: 0.19; `CC(=O)n1ccnc1`: -0.34.
`OC1OC[C@H](O)[C@H](O)[C@H]1O` (some centres undefined): the logP is -3.02.

Staying with this data set, now noted: pH 1.0.
`COC(=O)c1ccccc1C(=O)O` had a logD of 1.13.
The compound `CC(=O)c1c(O)oc(=O)c(/C(C)=N/c2ccccc2)c1O` registered a logD of 2.58.
For the compound `CS(=O)(=O)F`, the logD worked out at 0.55.

The same data set, now with this note: pH 3.0.
In the case of `CC(=O)OCC1=C(C(=O)O)N2C(=O)C(NC(=O)CSc3cc(Cl)ccc3Cl)C2SC1` (centres undefined), the logD was 1.66.

Still in this data set, the particulars now being: pH 4.2.
On to `NC(=O)c1nc[nH]c1N=NN(CCO)Cc1ccccc1`, for which the logD turned out to be 0.99.

The same data set, now with this note: pH 5.0.
Take `O=c1cccccc1O`: the logD was 0.75.

Staying with this data set, now noted: pH 6.0.
`Cc1cc(N(C)S(=O)(=O)c2ccc(N)cc2)no1` registered a logD of 1.75.

Still in this data set, the particulars now being: pH 7.0.
`CCCOC(=O)c1cccnc1` came in with a logD of 1.94.
On the same count and under the same terms, the result for `CC(=O)c1ccc(C#N)cc1` reads 1.22.

Still in this data set, the particulars now being: pH 7.3.
Regarding `Nc1ncnc2nc(-c3ccccc3)[nH]c12`, the logD came to 2.31.

Still in this data set, the particulars now being: pH 7.4.
`c1cc2n(n1)CCN2` gave a logD of -0.25.
`CCN(CC)c1c(C)n(-c2ccccc2)c(=O)n(C)c1=O` had a logD of 2.19.
Compound `Cc1[nH]c(=O)[nH]c(=O)c1N(CCF)CCCl` had a logD of 0.85.
Turning to `O=NN(CCCl)C(=O)N[C@@H]1[C@@H](O)[C@H](O)[C@@H](CO)O[C@H]1O`, the logD is -1.02.
Turning to `CCCNc1c(C)n(C)c(=O)n(-c2ccccc2)c1=O`, the logD is 1.2.
Consider `O=C1C=C(O)CCN1[C@@H]1O[C@H](CO)[C@@H](O)[C@H]1O`, for which the logD is -2.28.

Staying with this data set, now noted: pH 11.0.
Regarding `CN(C)C=CCCc1cccnc1`, the logD came out at 1.68.
In turn, `c1cncc(CCN2CCCCC2)c1` yielded a logD of 1.66.
Compound `c1cncc([C@@H]2CCCCN2)c1` had a logD of 0.97.
As to `CCN(CC)Cc1cccnc1`, the logD came to 1.01.

The same data set, now with this note: pH 13.0.
As to `Cc1ccc(N2C(N)=NC(N)=NC2(C)C)cc1`, the logD worked out at 0.85.
For `C=CCN(CC=C)CC=C`, the logD was found to be 2.59.

The term logP denotes the decadic logarithm of the partition coefficient of the neutral form, usually between octanol and water. The low end stands for lower lipophilicity, the high end for higher lipophilicity. Broadly, the logD is lipophilicity at a set pH, counting ionised and neutral species.
